Measurements as given in US20110288174A1, “Monohydrate of 4-(phenyl)ethyl]-amino}methyl)benzoic acid” (BAYER SCHERING PHARMA AKTIENGESELLSCHAFT, priority 2008, published 2011).

Test: Stability of the solid forms (thermodynamic and storage stability)
Format: physicochemical
Settings: for thermodynamic stability of the crystal form: solid form of the compound of the formula (I)

Row | thermodynamic stability of the crystal form | storage stability (even after processing to aqueous suspensions) | Structure (SMILES)
1 | metastable |  | O=C(O)CCCCN(CCc1ccccc1OCc1ccc(CCc2ccccc2)cc1)Cc1ccc(C(=O)O)cc1 [modification IV, 4-({(4-Carboxybutyl)[2-(2-{[4-(2-phenylethyl)benzyl]oxy}phenyl)ethyl]amino}methyl)benzoic acid]
2 | thermodynamically stable | storage-stable | O=C(O)CCCCN(CCc1ccccc1OCc1ccc(CCc2ccccc2)cc1)Cc1ccc(C(=O)O)cc1 [monohydrate A, monohydrate of 4-({(4-carboxybutyl)[2-(2-{[4-(2-phenylethyl)benzyl]oxy}phenyl)ethyl]amino}methyl)benzoic acid in form A]
